Where two headings read alike, the source gives them in different places.
Key:
Type in all cases: cell-based, human
NCI 58 cell line panel = assay: NCI one-dose SRB assay, whole panel / subpanel summary; settings: for inhibition at 10 µM: Homo sapiens, one dose, read-out: mean inhibition (mean % growth inhibition over NCI 58 cell line panel); for Mean Growth Percent: One Dose Mean Graph, 1.00E-5 Molar
Method: (§1) The structures of all the newly prepared pyridine-ureas 8a–n were submitted to the National Cancer Institute (NCI) Developmental Therapeutic Program. Eight compounds 8b, 8d, 8e, 8i, 8j and 8l–n were selected to be examined for their in vitro growth inhibitory activity. The anticancer assays were carried out according to the protocol of the Drug Evaluation Branch, NCI, Bethesda. The selected pyridine-ureas were tested at one dose primary anticancer assay against a panel of approximately 58 cancer lines (concentration 10^−5 M). The tested human cancer cell lines emerged from nine different cancer subtypes: leukemia, colon, melanoma, ovarian, lung, CNS, renal, breast and prostate cancers. The sulforhodamine B (SRB) protein assay was adopted to estimate the cell viability and growth. The results were reported as mean-graph of the percentage growth of the treated cells, and presented as percentage growth inhibition (GI%) caused by the test compounds (Table 2).
(§2) The anticancer assays were performed in accordance with the protocol of the Drug Evaluation Branch, NCI, Bethesda. A 48 h drug exposure protocol was used and sulforhodamine B (SRB) protein assay was applied to estimate the cell viability and growth, as reported earlier.

[1] = system: breast cancer MCF-7 cell line; assay: In vitro anti-proliferative activity, MTT assay; settings: MCF-7, MTT
Summary of the method: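 Growth inhibition was read colorimetrically by MTT, run in triplicate and averaged over at least three independent experiments. The cells were maintained in DMEM supplemented with 10 μg/mL insulin, 10% heat-inactivated FBS and 1% penicillin-streptomycin.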

SF-268 = assay: NCI one-dose SRB assay (CNS Cancer); settings: for inhibition at 10 µM: Homo sapiens, SF-268, 10 μM, read-out: Percentage growth inhibition (GI%); for Growth Percent: SF-268, 1.00E-5 Molar
Method: as §1, §2

U251 = assay: NCI one-dose SRB assay (CNS Cancer); settings: for inhibition at 10 µM: Homo sapiens, U-251, U251, 10 μM, read-out: Percentage growth inhibition (GI%); for Growth Percent: U251, 1.00E-5 Molar
Method: as §1, §2

SF-539 = assay: NCI one-dose SRB assay (CNS Cancer); settings: for inhibition at 10 µM: Homo sapiens, SF-539, 10 μM, read-out: Percentage growth inhibition (GI%); for Growth Percent: SF-539, 1.00E-5 Molar
Method: as §1, §2

SNB-75 = assay: NCI one-dose SRB assay (CNS Cancer); settings: for inhibition at 10 µM: Homo sapiens, SNB-75, 10 μM, read-out: Percentage growth inhibition (GI%); for Growth Percent: SNB-75, 1.00E-5 Molar
Method: as §1, §2

SNB-19 = assay: NCI one-dose SRB assay (CNS Cancer); settings: for inhibition at 10 µM: Homo sapiens, SNB-19, 10 μM, read-out: Percentage growth inhibition (GI%); for Growth Percent: SNB-19, 1.00E-5 Molar
Method: as §1, §2

SF-295 = assay: NCI one-dose SRB assay (CNS Cancer); settings: for inhibition at 10 µM: Homo sapiens, SF-295, 10 μM, read-out: Percentage growth inhibition (GI%); for Growth Percent: SF-295, 1.00E-5 Molar
Method: as §1, §2

PC-3 = assay: NCI one-dose SRB assay (Prostate); settings: for inhibition at 10 µM: Homo sapiens, PC-3, 10 μM, read-out: Percentage growth inhibition (GI%); for Growth Percent: PC-3, 1.00E-5 Molar
Method: as §1, §2

IGROV1 = assay: NCI one-dose SRB assay (Ovarian Cancer); settings: for inhibition at 10 µM: Homo sapiens, IGROV-1, IGROV1, 10 μM, read-out: Percentage growth inhibition (GI%); for Growth Percent: IGROV1, 1.00E-5 Molar
Method: as §1, §2

OVCAR-8 = assay: NCI one-dose SRB assay (Ovarian Cancer); settings: for inhibition at 10 µM: Homo sapiens, OVCAR-8, 10 μM, read-out: Percentage growth inhibition (GI%); for Growth Percent: OVCAR-8, 1.00E-5 Molar
Method: as §1, §2

NCI/ADR-RES = assay: NCI one-dose SRB assay (Ovarian Cancer); settings: for Growth Percent: 1.00E-5 Molar; for inhibition at 10 µM: Homo sapiens, read-out: Percentage growth inhibition (GI%)
Method: as §1, §2

SK-OV-3 = assay: NCI one-dose SRB assay (Ovarian Cancer); settings: for inhibition at 10 µM: Homo sapiens, SK-OV-3, 10 μM, read-out: Percentage growth inhibition (GI%); for Growth Percent: SK-OV-3, 1.00E-5 Molar
Method: as §1, §2

OVCAR-5 = assay: NCI one-dose SRB assay (Ovarian Cancer); settings: for inhibition at 10 µM: Homo sapiens, OVCAR-5, 10 μM, read-out: Percentage growth inhibition (GI%); for Growth Percent: OVCAR-5, 1.00E-5 Molar
Method: as §1, §2

OVCAR-4 = assay: NCI one-dose SRB assay (Ovarian Cancer); settings: for inhibition at 10 µM: Homo sapiens, OVCAR-4, 10 μM, read-out: Percentage growth inhibition (GI%); for Growth Percent: OVCAR-4, 1.00E-5 Molar
Method: as §1, §2

OVCAR-3 = assay: NCI one-dose SRB assay (Ovarian Cancer); settings: for inhibition at 10 µM: Homo sapiens, OVCAR-3, 10 μM, read-out: Percentage growth inhibition (GI%); for Growth Percent: OVCAR-3, 1.00E-5 Molar
Method: as §1, §2

SN12C = assay: NCI one-dose SRB assay (Renal Cancer); settings: for Growth Percent: 1.00E-5 Molar; for inhibition at 10 µM: Homo sapiens, read-out: Percentage growth inhibition (GI%)
Method: as §1, §2

RXF 393 = assay: NCI one-dose SRB assay (Renal Cancer); settings: for inhibition at 10 µM: Homo sapiens, RXF 393, 10 μM, read-out: Percentage growth inhibition (GI%); for Growth Percent: RXF 393, 1.00E-5 Molar
Method: as §1, §2

786-0 = assay: NCI one-dose SRB assay (Renal Cancer); settings: for Growth Percent: 786-0, 1.00E-5 Molar; for inhibition at 10 µM: Homo sapiens, 786-0, 10 μM, read-out: Percentage growth inhibition (GI%)
Method: as §1, §2

A498 = assay: NCI one-dose SRB assay (Renal Cancer); settings: for Growth Percent: A498, 1.00E-5 Molar; for inhibition at 10 µM: Homo sapiens, A498, 10 μM, read-out: Percentage growth inhibition (GI%)
Method: as §1, §2

TK-10 = assay: NCI one-dose SRB assay (Renal Cancer); settings: for inhibition at 10 µM: Homo sapiens, TK-10, 10 μM, read-out: Percentage growth inhibition (GI%); for Growth Percent: TK-10, 1.00E-5 Molar
Method: as §1, §2

UO-31 = assay: NCI one-dose SRB assay (Renal Cancer); settings: for inhibition at 10 µM: Homo sapiens, UO-31, 10 μM, read-out: Percentage growth inhibition (GI%); for Growth Percent: UO-31, 1.00E-5 Molar
Method: as §1, §2

[2] = Homo sapiens, MCF7, 48 h, 48 h of incubation, read-out: IC50 48 h
[3] = Homo sapiens, MCF7, 72 h, 72 h of incubation, read-out: IC50 72 h

COc1ccc(-c2ccc(NC(=O)Nc3cccc(C(F)(F)F)c3)c(C)n2)cc1OC [Compound 8i, 1-(6-(3,4-Dimethoxyphenyl)-2-methylpyridin-3-yl)-3-(3-(trifluoromethyl)phenyl) Urea]
inhibition at 10 µM (NCI 58 cell line panel): 22 to 34%
Mean Growth Percent (NCI 58 cell line panel): 67.33%
IC50 [1, 2]: 6.19 ± 0.54 µM
IC50 [1, 3]: 5.8 ± 0.34 µM
inhibition at 10 µM (SF-268): 25%
Growth Percent (SF-268): 75.96%
inhibition at 10 µM (U251): 37%
Growth Percent (U251): 63.88%
inhibition at 10 µM (SF-539): 23%
Growth Percent (SF-539): 77.24%
inhibition at 10 µM (SNB-75): 34%
Growth Percent (SNB-75): 66.71%
inhibition at 10 µM (SNB-19): 22%
Growth Percent (SNB-19): 78.84%
inhibition at 10 µM (SF-295): 35%
Growth Percent (SF-295): 65.28%
inhibition at 10 µM (PC-3): 73%
Growth Percent (PC-3): 27.45%
inhibition at 10 µM (IGROV1): < 10%
Growth Percent (IGROV1): 91.46%
inhibition at 10 µM (OVCAR-8): 19%
Growth Percent (OVCAR-8): 81.32%
Growth Percent (NCI/ADR-RES): 66.87%
inhibition at 10 µM (NCI/ADR-RES): 34%
inhibition at 10 µM (SK-OV-3): < 10%
Growth Percent (SK-OV-3): 101.37%
inhibition at 10 µM (OVCAR-5): < 10%
Growth Percent (OVCAR-5): 94.03%
inhibition at 10 µM (OVCAR-4): 41%
Growth Percent (OVCAR-4): 59.07%
inhibition at 10 µM (OVCAR-3): 31%
Growth Percent (OVCAR-3): 69.16%
Growth Percent (SN12C): 79.32%
inhibition at 10 µM (SN12C): 21%
inhibition at 10 µM (RXF 393): 23%
Growth Percent (RXF 393): 77.55%
Growth Percent (786-0): 69.08%
inhibition at 10 µM (786-0): 31%
Growth Percent (A498): 61.34%
inhibition at 10 µM (A498): 39%
inhibition at 10 µM (TK-10): 21%
Growth Percent (TK-10): 79.75%
inhibition at 10 µM (UO-31): 26%
Growth Percent (UO-31): 74.95%

COc1ccc(-c2ccc(NC(=O)Nc3cccc(Cl)c3)c(C)n2)cc1OC [Compound 8j, 1-(3-Chlorophenyl)-3-(6-(3,4-dimethoxyphenyl)-2-methylpyridin-3-yl) Urea]
inhibition at 10 µM (NCI 58 cell line panel): 22 to 34%
Mean Growth Percent (NCI 58 cell line panel): 78.01%
IC50 [1, 2]: 10.1 µM
IC50 [1, 3]: 26.2 ± 2.17 µM
IC50 ([1]; 48 h of incubation, read-out: IC50 48 h): 10.9 ± 1.03 µM
inhibition at 10 µM (SF-268): 13%
Growth Percent (SF-268): 87.00%
inhibition at 10 µM (U251): 17%
Growth Percent (U251): 83.31%
inhibition at 10 µM (SF-539): 11%
Growth Percent (SF-539): 89.70%
inhibition at 10 µM (SNB-75): 16%
Growth Percent (SNB-75): 84.12%
inhibition at 10 µM (SNB-19): < 10%
Growth Percent (SNB-19): 97.00%
inhibition at 10 µM (SF-295): 17%
Growth Percent (SF-295): 83.73%
inhibition at 10 µM (PC-3): 61%
Growth Percent (PC-3): 39.30%
inhibition at 10 µM (IGROV1): < 10%
Growth Percent (IGROV1): 100.28%
inhibition at 10 µM (OVCAR-8): 10%
Growth Percent (OVCAR-8): 90.16%
Growth Percent (NCI/ADR-RES): 84.81%
inhibition at 10 µM (NCI/ADR-RES): 16%
inhibition at 10 µM (SK-OV-3): 17%
Growth Percent (SK-OV-3): 83.62%
inhibition at 10 µM (OVCAR-5): 12%
Growth Percent (OVCAR-5): 88.21%
inhibition at 10 µM (OVCAR-4): < 10%
Growth Percent (OVCAR-4): 91.75%
inhibition at 10 µM (OVCAR-3): 10%
Growth Percent (OVCAR-3): 90.37%
Growth Percent (SN12C): 86.84%
inhibition at 10 µM (SN12C): 14%
inhibition at 10 µM (RXF 393): 18%
Growth Percent (RXF 393): 82.62%
Growth Percent (786-0): 71.87%
inhibition at 10 µM (786-0): 29%
Growth Percent (A498): 69.84%
inhibition at 10 µM (A498): 31%
inhibition at 10 µM (TK-10): < 10%
Growth Percent (TK-10): 99.31%
inhibition at 10 µM (UO-31): 21%
Growth Percent (UO-31): 79.44%
